Laboratory results as given in ChEMBL document CHEMBL1201862, “PubChem BioAssay data set” (2004).
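How tested: cells in 96-well plates exposed to compound for 48 hours at five concentrations. Here, GI50 denotes the concentration required for 50% inhibition of growth.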 Active and inactive are the calls of the source. Rule as the data show it: active = GI50 up to about 1.1 µM and inactive = higher.

Columns and labels:
Assay in all cases: inhibition of tumour cell growth, NCI panel, 48 h
786-0 = test system: 786-0
A498 = test system: A498
A549 = test system: A549
ACHN = test system: ACHN
BT-549 = test system: BT-549
CAKI-1 = test system: CAKI-1
CCRF-CEM = test system: CCRF-CEM
COLO 205 = test system: COLO 205
DLD-1 = test system: DLD-1
DMS-114 = test system: DMS-114
DMS-273 = test system: DMS-273
DU-145 = test system: DU-145
EKVX = test system: EKVX
HCC 2998 = test system: HCC 2998
HCT-116 = test system: HCT-116
HCT-15 = test system: HCT-15
HL-60 = test system: HL-60
HOP-18 = test system: HOP-18
HOP-62 = test system: HOP-62
HOP-92 = test system: HOP-92
HT-29 = test system: HT-29
Hs-578T = test system: Hs-578T
IGROV-1 = test system: IGROV-1
K562 = test system: K562
KM-20L2 = test system: KM-20L2
KM12 = test system: KM12
LOX IMVI = test system: LOX IMVI
M14 = test system: M14
M19-MEL = test system: M19-MEL
MCF7 = test system: MCF7
MDA-MB-231 = test system: MDA-MB-231
MDA-MB-435 = test system: MDA-MB-435
MDA-N = test system: MDA-N
MOLT-4 = test system: MOLT-4
Malme-3M = test system: Malme-3M
NCI-H226 = test system: NCI-H226
NCI-H23 = test system: NCI-H23
NCI-H460 = test system: NCI-H460
NCI-H522 = test system: NCI-H522
NCI/ADR-RES = test system: NCI/ADR-RES
OVCAR-3 = test system: OVCAR-3
OVCAR-4 = test system: OVCAR-4
OVCAR-5 = test system: OVCAR-5
OVCAR-8 = test system: OVCAR-8
PC-3 = test system: PC-3
RPMI-8226 = test system: RPMI-8226
RXF 393 = test system: RXF 393
SF-268 = test system: SF-268
SF-295 = test system: SF-295
SF-539 = test system: SF-539
SK-MEL-28 = test system: SK-MEL-28
SK-MEL-2 = test system: SK-MEL-2
SK-MEL-5 = test system: SK-MEL-5
SK-OV-3 = test system: SK-OV-3
SN12C = test system: SN12C
SNB-19 = test system: SNB-19
SNB-75 = test system: SNB-75
SNB-78 = test system: SNB-78
SR = test system: SR
SW-620 = test system: SW-620
T47D = test system: T47D
TK-10 = test system: TK-10
U-251 = test system: U-251
UACC-257 = test system: UACC-257
UACC-62 = test system: UACC-62
UO-31 = test system: UO-31
XF498 = test system: XF498

`C[C@@H](CN1CC(=O)NC(=O)C1)N1CC(=O)NC(=O)C1` [DEXRAZOXANE] was tested, and the GI50 (786-0) was 266 µM (inactive), the GI50 (A498) was 221 µM (inactive) and the GI50 (A549) was 37.2 µM (inactive). The GI50 (ACHN) was 139 µM (inactive), the GI50 (BT-549) was 230 µM (inactive) and the GI50 (CAKI-1) was 90.6 µM (inactive). The GI50 (CCRF-CEM) was 21.4 µM (inactive), the GI50 (COLO 205) was 12.5 µM (inactive) and the GI50 (DLD-1) was 424 µM (inactive). The GI50 (DMS-114) was 70.5 µM (inactive), the GI50 (DMS-273) was 218 µM (inactive) and the GI50 (DU-145) was 255 µM (inactive). The GI50 (EKVX) was 173 µM (inactive), the GI50 (HCC 2998) was 473 µM (inactive) and the GI50 (HCT-116) was 118 µM (inactive). The GI50 (HCT-15) was 122 µM, the GI50 (HL-60) was 51.1 µM (inactive) and the GI50 (HOP-18) was 422 µM (inactive). For the same compound, the GI50 (HOP-62) was 66.8 µM (inactive), the GI50 (HOP-92) was 196 µM (inactive) and the GI50 (HT-29) was 110 µM (inactive). For the same compound, the GI50 (Hs-578T) was 320 µM (inactive), the GI50 (IGROV-1) was 356 µM (inactive) and the GI50 (K562) was 301 µM (inactive). The GI50 (KM-20L2) was 123 µM (inactive), the GI50 (KM12) was 522 µM (inactive) and the GI50 (LOX IMVI) was 236 µM (inactive). For the same compound, the GI50 (M14) was 360 µM (inactive), the GI50 (M19-MEL) was 311 µM (inactive) and the GI50 (MCF7) was 24.4 µM (inactive). For the same compound, the GI50 (MDA-MB-231) was 168 µM (inactive), the GI50 (MDA-MB-435) was 395 µM (inactive) and the GI50 (MDA-N) was 241 µM (inactive). The GI50 (MOLT-4) was 15.8 µM (inactive), the GI50 (Malme-3M) was 165 µM (inactive) and the GI50 (NCI-H226) was 101 µM (inactive). For the same compound, the GI50 (NCI-H23) was 125 µM (inactive), the GI50 (NCI-H460) was 6.67 µM (inactive) and the GI50 (NCI-H522) was 67.8 µM (inactive). The GI50 (NCI/ADR-RES) was 282 µM (inactive), the GI50 (OVCAR-3) was 224 µM (inactive) and the GI50 (OVCAR-4) was 115 µM (inactive). The GI50 (OVCAR-5) was 372 µM (inactive), the GI50 (OVCAR-8) was 282 µM (inactive) and the GI50 (PC-3) was 180 µM (inactive). The GI50 (RPMI-8226) was 327 µM (inactive), the GI50 (RXF 393) was 272 µM (inactive) and the GI50 (SF-268) was 378 µM (inactive). For the same compound, the GI50 (SF-295) was 259 µM (inactive), the GI50 (SF-539) was 332 µM (inactive) and the GI50 (SK-MEL-28) was 458 µM (inactive). The GI50 (SK-MEL-2) was 246 µM (inactive), the GI50 (SK-MEL-5) was 174 µM (inactive) and the GI50 (SK-OV-3) was 227 µM (inactive). The GI50 (SN12C) was 232 µM (inactive), the GI50 (SNB-19) was 279 µM (inactive) and the GI50 (SNB-75) was 318 µM (inactive). The GI50 (SNB-78) was 435 µM (inactive), the GI50 (SR) was 93.1 µM (inactive) and the GI50 (SW-620) was 57.5 µM (inactive). The GI50 (T47D) was 109 µM (inactive), the GI50 (TK-10) was 222 µM (inactive) and the GI50 (U-251) was 228 µM (inactive). The GI50 (UACC-257) was 492 µM (inactive), the GI50 (UACC-62) was 147 µM (inactive) and the GI50 (UO-31) was 354 µM (inactive). The GI50 (XF498) was 102 µM (inactive).
